Test results: patent publication US20220033360A1, “OPHTHALMIC COMPOSITIONS AND METHODS FOR THE TREATMENT OF SKIN DISEASES AND EYE DISEASES” (Cellix Bio Private Limited, priority 2018, published 2022)
Like-named read-outs stand apart in the source and are kept apart here.

Tests used:
5-LO = assay: Lipoxygenase inhibitor screening assay, cell-free, 5-LO with linoleic acid as substrate; type: biochemical
Description: (§1) CLX-162C-C01 in concentrations ranging from 0.001 to 1.2 mM was added to 5-LO or 15-LO in the screening assay buffer, respectively, and the LO inhibitor screening assay was immediately started by addition of the corresponding substrates and running for 5 min. The inhibitory capacity of CLX-162C-C01 against lipoxygenases was studied in a cell-free system consisting of CLX-162C-C01 and 5-LO or 15-LO together with appropriate substrates, respectively.

[1] = Oxidative capacity of UCP (oxidation of methionine to methionine sulfoxide), cell-free; conditions: 0.1 to 10 mM, preincubation 60 min, methionine sulfoxide formation
Description: The influence of CLX-162C-C01 on the oxidative capacity of UCP was studied by preincubating UCP (2 mg/ml H2O) with various concentrations of CLX-162C-C01 (0.1, 1, and 10 mM) for 60 min at room temperature in parallel with the controls. To assay the oxidative capacity of UCP, aliquots of 50 microlit (100 microgm UCP) of particle suspension taken from the preincubations were suspended in 1 ml H2O and incubated in the presence of 100 microM methionine for 2 h at 25° C. Formation of methionine sulfoxide was measured fluorometrically after precolumn derivatization with o-phthaldialdehyde and HPLC. […] The oxidative potential of the particles was subsequently determined by their capacity to oxidize […] sulfoxide. […] CLX-162C-C01 antioxidative potency to prevent the oxidation of methionine by agglomerates of ultrafine carbon particles (UCPs). Particulate stimulants such as UCP and zymosan activate lipid mediator synthesis and to induce oxidative stress in macrophages.

15-LO = assay: Lipoxygenase inhibitor screening assay, cell-free, 15-LO with arachidonic acid as substrate; type: biochemical; conditions: concentrations from 0.32 to 0.93 mM
Description: as §1

human 5-HT2B receptors = human 5-HT2B receptors (Homo sapiens, UniProt P41595); assay: 5-HT2B agonist assay, intracellular calcium (Fluo-3, FLIPR) in HEK-293 cells; type: cell-based; conditions: HEK-293 cells expressing human 5-HT2B
Description: 5-HT2B receptors stably expressing HEK-293 cells were maintained in Dulbecco's modified Eagle's medium (DMEM) supplemented with 10% fetal bovine serum and 250 microgm·mL-1 G-418. HEK-293 cells expressing human 5-HT2B receptors were seeded in […] poly-D-lysine coated plates at a density of 50,000 cells·well-1 in DMEM containing 10% (v.v-1) dialyzed fetal bovine serum and 250 microgm·mL-1 G-418. After overnight incubation, the cells were washed three times with Hank's buffered saline solution containing 2 mM CaCl2), 10 mM HEPES and 2.5 mM probenecid. The cells were incubated with 2 microM Fluo-3 AM in Hank's buffered saline solution for 60 min at 37 C. The Fluo-3 loaded cells were then washed four times with Hank's buffered saline solution. Agonist-induced changes in intracellular calcium concentrations were determined at room temperature using a Fluorometric Imaging Plate Reader.

human 5-HT2B receptors, sequence (P41595 whole entry): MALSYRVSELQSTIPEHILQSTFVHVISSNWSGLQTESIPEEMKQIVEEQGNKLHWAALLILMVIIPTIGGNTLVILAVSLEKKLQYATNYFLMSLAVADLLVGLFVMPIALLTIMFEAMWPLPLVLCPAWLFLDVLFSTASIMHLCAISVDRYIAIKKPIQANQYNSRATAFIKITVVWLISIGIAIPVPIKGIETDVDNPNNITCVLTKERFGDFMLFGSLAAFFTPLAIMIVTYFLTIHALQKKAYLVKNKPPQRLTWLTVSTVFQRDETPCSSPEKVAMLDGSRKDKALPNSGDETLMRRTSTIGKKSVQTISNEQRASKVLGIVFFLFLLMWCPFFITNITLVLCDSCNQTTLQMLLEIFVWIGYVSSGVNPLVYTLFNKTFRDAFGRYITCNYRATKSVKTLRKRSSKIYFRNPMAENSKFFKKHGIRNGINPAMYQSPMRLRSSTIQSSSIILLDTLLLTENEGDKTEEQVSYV

Cc1cc(C(C)(C)C)c(O)c(C)c1CC1=NCCN1 [CLX-162C-C01, 2-(4-(tert-butyl)-3-hydroxy-2,6-dimethylbenzyl)-4,5-dihydro-1Himidazol-1-ium (R)-5-(1,2-dithiolan-3-yl) pentanoate]
inhibition of the activity of 5-LO (5-LO; concentrations from 0.32 to 0.93 mM): strongly inhibited
IC50 (5-LO; linoleic acid substrate, 5 min, read-out: 50% inhibition of 5-LO): 320000 nM
effect on oxidative capacity of UCP [1]: did not reduce
inhibition of the activity of 15-LO (15-LO): only marginally affected
EC50 (human 5-HT2B receptors; read-out: EC50, 5-HT2B agonist effect): 14.2 nM
EC50 (human 5-HT2B receptors; read-out: pEC50 (-log EC50), 5-HT2B agonist effect (converted)): 490 nM
